Assay results reported in US20150368195A1, “INDOLINE COMPOUNDS FOR TREATMENT AND/OR PREVENTION OF INFLAMMATION DISEASES” (Taipei Medical University, priority 2014, published 2015).
“Also recorded” adds a separate entry of the source.

How the values were obtained:
nitric oxide (NO) = assay: LPS-induced nitric oxide production in RAW 264.7 macrophages; assay type: cell-based, Mouse
Protocol: Nitrite concentration was determined using a dilution of sodium nitrite as a standard.
(§1) Furthermore, the anti-inflammatory effects of MPT0G009 was evaluated. […] These supernatants were then assayed for PGE2, NO, and IL-6.

prostaglandin E2 (PGE2) = assay: LPS-induced PGE2 production in RAW 264.7 macrophages; assay type: cell-based, Mouse
Protocol: as §1

IL-6 = assay: IL-1β-induced IL-6 production by RA-FLS; assay type: cell-based; details: MPT0G009 0.1, 1, 10 μM; SAHA 0.3, 3, 30 μM; IL-1β 10 ng/mL 24 h
Protocol: (§2) (FIG. 1A) Structure of MPT0G009. […] Results in (FIGS. 1B-E) and (FIG. 1G) are means±SEM's for three independent experiments, *p<0.05 and **p<0.01 compared with no added inhibitor.
as §1

RA-FLS = assay: cell cycle distribution by flow cytometry (propidium iodide); assay type: cell-based; details: 24 h
Excerpt: as §2

histone H3 (Acetyl-H3) = assay: histone H3 acetylation, Western blot, HIG-82 synoviocytes; assay type: cell-based; details: 3 μM MPT0G009 or 60 μM SAHA; 6, 12, 24 h; starting at 6 h
HDAC3 = assay: HDAC isoform protein levels, Western blot, RA-FLS; assay type: cell-based; details: 12 or 24 h; 1 μM MPT0G009 or 30 μM SAHA
Protocol: Then cells were harvested and cell lysates were prepared for Western blot analysis of the indicated proteins. (FIG. 5C) RA-FLS were incubated for 1 h with or without the proteasome inhibitor, MG132 (1 μM). […] Results shown are representative of three independent experiments.

[1] = in vivo rat pharmacokinetic profiling; parameters: species or system rats
Excerpt: The pharmokinetic parameters of MPT0G009 in rats after single-dose intravenous (i.v.) and oral administration are summarized in Table 2. […].

CTGF = assay: pro-fibrogenic mediator-induced CTGF production, Western blot; assay type: cell-based, human; details: WI-38 lung fibroblasts
Protocol: Western blot analysis was performed. First, WI-38 lung fibroblasts were incubated with different concentrations of MPT0E028 (0.01, 0.03, 0.1, 0.3, or 1 μM) (FIG. 10A) or MPT0G009 (0.01, 0.03, 0.1, 0.3, or 1 μM) (FIG. 10B) for 30 min before and during incubation for 2 h with TGF-β (10 ng/mL). WI-38 lung fibroblasts were incubated with 1 μM MPT0E028 and MPT0G009 for 30 min and following another incubation for 2 h with 1 U/ml thrombin (FIG. 10C) and 10 nM ET-1 (FIG. 10D). The collagen I production from WI-38 lung fibroblasts stimulated by 10 ng/mL TGF-β for 24 h was inhibited with 1 μM MPT0E028 and MPT0G009 pretreatment (FIG. 10E).
WI-38 cells, a normal human embryonic lung fibroblast cell line, were obtained from American Type Culture Collection (Manassas, Va.). Cells were grown in MEM nutrient mixture, containing 10% FCS, 2 mM L-glutamine, 0.1 mM NEAA, 1 mM sodium pyruvate, 50 U/ml penicillin G, and 100 μg/ml streptomycin, in a humidified 37° C. incubator with 5% CO2 Cells were used between passages 18 and 30 for all experiments. After reaching confluence, cells were seeded onto 6-cm dishes for immunoblotting.
Western blot analyses were performed as described previously (Chen B C, Chang Y S, Kang J C, Hsu M J, Sheu J R, Chen T L, et al. Peptidoglycan induces nuclear factor-kappaB activation and cyclooxygenase-2 expression via Ras, Raf-1, and ERK in RAW 264.7 macrophages. J Biol Chem 2004; 279:20889-97). Briefly, WI-38 lung fibroblasts were cultured in 6-cm dishes. After reaching confluence, cells were pretreated with specific inhibitors (E028 and G009) as indicated for 30 min, and then treated with the vehicle (H2O) or 10 ng/ml TGF-β for 2 h (CTGF assay) or 24 h (collagen I assay). Whole-cell lysates ([…]) were subjected to 12% (CTGF) or 8% (collagen I) SDS-PAGE, and transferred onto a polyvinylidene difluoride membrane which was then incubated in TBST buffer (150 mM NaCl, 20 mM Tris-HCl, and 0.02% Tween 20; pH 7.4) containing 5% BSA. Proteins were visualized by specific primary antibodies and then incubated with HRP-conjugated secondary antibodies. The immunoreactivity was detected using enhanced chemiluminescence (ECL) following the manufacturer's instructions. Quantitative data were obtained using a computing densitometer with scientific imaging systems (Kodak, Rochester, N.Y.).
To determine whether the inhibitory effects of MPT0E028 and MPT0G009 on pro-fibrogenic mediators (TGF-β, thrombin, and ET-1) were related to the modulation of CTGF and Collagen I production, Western blot analysis was performed. First, WI-38 lung fibroblasts were incubated with different concentrations of MPT0E028 (0.01, 0.03, 0.1, 0.3, or 1 μM) (FIG. 10A) or MPT0G009 (0.01, 0.03, 0.1, 0.3, or 1 μM) (FIG. 10B) for 30 min before and during incubation for 2 h with TGF-β (10 ng/mL). […] Furthermore, we examined the effects of MPT0E028 and MPT0G009 on other pro-fibrogenic mediators. As shown in FIGS. 10C and 10D, WI-38 lung fibroblasts were incubated with 1 μM MPT0E028 and MPT0G009 for 30 min and following another incubation for 2 h with 1 U/ml thrombin (FIG. 10C) and 10 nM ET-1 (FIG. 10D).

[2] = system: carrageenan-induced hind paw edema; assay: carrageenan-induced hind paw edema
Protocol: A 0.5% (w/v) suspension of carrageenan in normal saline was administered to male Wistar rats (7-weeks) by intradermal injection into the base of the right hind paw. […] A positive control group was included in which rats were pretreated with 5 mg/kg Indomethacin. […] The results are expressed as the mean±SEM, with n=5. *p<0.05 compared to the control group; #p<0.05 for the comparison of the indicated groups.
Animals were divided into four groups (n=5). 0.5% (w/v) suspension of carrageenan in normal saline was administered to male Wistar rats (7-weeks) by intradermal injection into the base of the right hind paw. […] A positive control group was included in which rats were pretreated with 5 mg/kg Indomethacin. Three hours after carrageenan administration, the thickness and volume of the right hind paw were measured by digital caliper and digital plethysmometer (Diagnostic & Research Instruments CO., Ltd, Taipei, Taiwan), respectively.

HDAC1 and HDAC6 = assay: overexpression of HDAC1 and HDAC6 in RAW264.7 macrophages or RA-FLS
Protocol: Cells were then tartrate resistant acid phosphatase
(TRAP) stained, and the numbers of TRAP-positive multinuclear cells were counted (FIG. 7D) or were incubated with a fluorescein isothiocyanate (FITC)-conjugated anti-CD51/61 antibody and analyzed by flow cytometry (FIG. 7E).

[3] = MPT0G009 0.1, 1, 10 μM, SAHA 0.3, 3, 30 μM, LPS 25 ng/mL 24 h
[4] = Mus musculus, RAW264.7, LPS-stimulated RAW 264.7 macrophages, mean ± SEM, three experiments

COc1ccc(S(=O)(=O)N2CCc3cc(C=CC(=O)NO)ccc32)cc1 [Compound 9, 3-[1-(4-methoxybenzenesulfonyl)-2,3-dihydro-1H-indol-5-yl]-N-Hydroxyacrylamide]
NO production by RAW264.7 cells (nitric oxide (NO); [3]): inhibited
IC50 (nitric oxide (NO); [4]): 1070 nM
PGE2 production by RAW264.7 cells (prostaglandin E2 (PGE2); [3]): inhibited
IC50 (prostaglandin E2 (PGE2); [4]): 520 nM
IL-6 production by RA-FLS (IL-6): inhibited
subG1 peak (cellular apoptosis) (RA-FLS; MPT0G009 1-1000 nM, SAHA 3-3000 nM): did not increase the subG1 peak
G0/G1 phase arrest (RA-FLS; all concentrations of both agents): G0/G1 phase arrest was observed
acetylation of histone H3 in HIG-82 synoviocytes (histone H3 (Acetyl-H3)): significant hyperacetylation of histone H3
levels of HDAC3 in RA-FLS (HDAC3): decreased levels of HDAC3
T1/2 ([1]; rat, in vivo, iv, 2 mg/kg): 6.74 h
Vd ([1]; rat, in vivo, iv, 2 mg/kg): 25.21 L/kg
T1/2 ([1]; rat, in vivo, po, 20 mg/kg): 9.53 h
F ([1]; rats, po 20 mg/kg, MPT0G009): 13.0%
ET-1-induced CTGF expression (CTGF; 1 μM, 10 nM ET-1 2 h): inhibited
thrombin-induced CTGF expression (CTGF; 1 μM, 1 U/ml thrombin 2 h): inhibited
TGF-β-induced CTGF production (CTGF; 0.01-1 μM, TGF-β 10 ng/mL 2 h): significantly inhibited
paw thickness reduced compared to control ([2]; compound 9 25 mg/kg oral, 3 h after carrageenan): 21.3%
carrageenan-induced hind paw edema ([2]; oral, 1 h before carrageenan, compound 9 25 mg/kg, SAHA 200 mg/kg, Indomethacin 5 mg/kg, measured 3 h after): significantly inhibited; also recorded: suppress
effect of HDAC overexpression on inhibition of M-CSF/RANKL-induced osteoclast differentiation and CD51/61 expression (HDAC1 and HDAC6; 5 nM MPT0G009, transfected RAW264.7): significantly reduced
effect of HDAC overexpression on inhibition of LPS-mediated NO or PGE2 release (HDAC1 and HDAC6; 10 μM MPT0G009 or 30 μM SAHA, HDAC1- and HDAC6-coexpressing RAW264.7 or RA-FLS): significantly reduced the inhibitory effects
